Calls of active or inactive are those of the source. The rule behind the calls is not given here.
Columns and labels:
HepG2 [1] = assay: Downregulation of SREBP2 mRNA expression in human HepG2 cells at 2.5 to 15 uM by qRT-PCR analysis; format: functional, cell-based; details: dose 2.5-15 µM
HepG2 [2] = assay: Cytotoxicity against human HepG2 cells assessed as inhibition of cell growth at 0 to 15 uM incubated for 24 hrs by CCK-8 assay; format: toxicity, cell-based; details: hepg2, 24 h, dose 0-15 µM
HepG2 [3] = assay: Downregulation of SREBP2 protein expression in human HepG2 cells at 2.5 to 15 uM by Western blot analysis; format: functional, cell-based; details: dose 2.5-15 µM
HepG2 [4] = assay: Reduction in triglyceride level in human HepG2 cells assessed as reduction in ACC protein expression by Western blot analysis; format: functional, cell-based; details: dose 2.5-15 µM, DDE = dose-dependent effect
HepG2 [5] = assay: Reduction in cholesterol biosynthesis in human HepG2 cells assessed as reduction in HMGCR mRNA expression at 2.5 to 15 uM by qRT-PCR analysis; format: functional, cell-based; details: dose 2.5-15 µM
THP-1 [6] = assay: Inhibition of ox-LDL uptake in human THP-1 foam cells assessed as downregulation of CD36 expression by measuring reduction in phosphorylated p38 protein expression at 2.5 to 15 uM by Western blot analysis; format: functional, cell-based; details: dose 2.5-15 µM
THP-1 [7] = assay: Induction of lipid efflux in human THP-1 cells assessed as upregulation of PPARgamma mRNA expression by qRT-PCR analysis; format: functional, cell-based; details: dose 2.5-15 µM, DDE = dose-dependent effect
THP-1 [8] = assay: Inhibition of ox-LDL induced lipid accumulation in human THP-1 cells assessed as reduction oxidized LDL uptake at 2.5 to 15 uM incubated for 4 hrs by Hoechst 33258 dye based confocal microscopic analysis; format: functional, cell-based; details: dose 2.5-15 µM
HepG2 [9] = assay: Induction of reverse cholesterol transport in human HepG2 cells assessed as increase in SR-B1 protein expression by Western blot analysis; format: functional, cell-based; details: dose 2.5-15 µM, DDE = dose-dependent effect
THP-1 [10] = assay: Inhibition of foam cells formation in human THP-1 cells assessed as upregulation of SR-B1 protein expression at 2.5 to 15 uM by Western blot analysis; format: functional, cell-based; details: dose 2.5-15 µM
THP-1 [11] = assay: Inhibition of foam cells formation in human THP-1 cells assessed as upregulation of SR-B1 mRNA expression at 2.5 to 15 uM by RT-PCR analysis; format: functional, cell-based; details: dose 2.5-15 µM
THP-1 [12] = assay: Inhibition of foam cells formation in human THP-1 cells assessed as reduction in CD36 protein expression at 2.5 to 15 uM by Western blot analysis; format: functional, cell-based; details: dose 2.5-15 µM
THP-1 [13] = assay: Inhibition of ox-LDL uptake in human THP-1 foam cells assessed as downregulation of CD36 expression by measuring reduction in total p38 protein expression at 2.5 to 15 uM by Western blot analysis; format: functional, cell-based; details: dose 2.5-15 µM
HepG2 [14] = assay: Reduction in triglyceride level in human HepG2 cells assessed as reduction in FAS protein expression by Western blot analysis; format: functional, cell-based; details: dose 2.5-15 µM, DDE = dose-dependent effect
THP-1 [15] = assay: Induction of lipid efflux in human THP-1 cells assessed as upregulation of PPARgamma protein expression at higher concentrations by Western blot analysis; format: functional, cell-based
THP-1 [16] = assay: Inhibition of ox-LDL induced lipid accumulation in human THP-1 cells assessed as reduction in total triglyceride level at 2.5 to 15 uM; format: functional, cell-based; details: dose 2.5-15 µM
HepG2 [17] = assay: Downregulation of SREBP1c mRNA expression in human HepG2 cells at 2.5 to 15 uM by qRT-PCR analysis; format: functional, cell-based; details: dose 2.5-15 µM
HepG2 [18] = assay: Inhibition of ox-LDL induced lipid accumulation in human HepG2 cells assessed as reduction in total triglyceride level at 2.5 to 15 uM; format: functional, cell-based; details: dose 2.5-15 µM
THP-1 [19] = assay: Induction of lipid efflux in human THP-1 cells assessed as upregulation of LXRalpha protein expression at higher concentrations by Western blot analysis; format: functional, cell-based
HepG2 [20] = assay: Induction of reverse cholesterol transport in human HepG2 cells assessed as increase in SR-B1 mRNA expression by qRT-PCR analysis; format: functional, cell-based; details: dose 2.5-15 µM, DDE = dose-dependent effect
THP-1 [21] = assay: Cytotoxicity against human THP-1 cells assessed as inhibition of cell growth at 0 to 15 uM incubated for 24 hrs by CCK-8 assay; format: toxicity, cell-based; details: thp-1, 24 h, dose 0-15 µM
HepG2 [22] = assay: Inhibition of ox-LDL induced lipid accumulation in human HepG2 cells assessed as reduction in total cholesterol level at 2.5 to 15 uM; format: functional, cell-based; details: dose 2.5-15 µM
HepG2 [23] = assay: Reduction in triglyceride level in human HepG2 cells assessed as reduction in ACC mRNA expression by qRT-PCR analysis; format: functional, cell-based; details: dose 2.5-15 µM, DDE = dose-dependent effect
THP-1 [24] = assay: Inhibition of ox-LDL uptake in human THP-1 foam cells assessed as downregulation of CD36 expression by measuring reduction in total ERK protein expression at 2.5 to 15 uM by Western blot analysis; format: functional, cell-based; details: dose 2.5-15 µM
HepG2 [25] = assay: Induction of reverse cholesterol transport in human HepG2 cells assessed as reduction in PCSK9 protein expression at 2.5 to 15 uM by Western blot analysis; format: functional, cell-based; details: dose 2.5-15 µM
THP-1 [26] = assay: Inhibition of ox-LDL induced lipid accumulation in human THP-1 cells assessed as reduction in intracellular lipid droplets at 2.5 to 15 uM by oil red O staining based inverted microscopic analysis; format: functional, cell-based; details: dose 2.5-15 µM
THP-1 [27] = assay: Inhibition of foam cells formation in human THP-1 cells assessed as upregulation of ABCA1 mRNA expression at 2.5 to 15 uM by RT-PCR analysis; format: functional, cell-based; details: dose 2.5-15 µM
HepG2 [28] = assay: Downregulation of SREBP1c protein expression in human HepG2 cells at 2.5 to 15 uM by Western blot analysis; format: functional, cell-based; details: dose 2.5-15 µM
THP-1 [29] = assay: Inhibition of ox-LDL induced lipid accumulation in human THP-1 cells assessed as reduction in total cholesterol level at 2.5 to 15 uM; format: functional, cell-based; details: dose 2.5-15 µM
HepG2 [30] = assay: Reduction in triglyceride level in human HepG2 cells assessed as reduction in FAS mRNA expression by qRT-PCR analysis; format: functional, cell-based; details: dose 2.5-15 µM, DDE = dose-dependent effect
THP-1 [31] = assay: Induction of lipid efflux in human THP-1 cells assessed as upregulation of LXRalpha mRNA expression by qRT-PCR analysis; format: functional, cell-based; details: dose 2.5-15 µM, DDE = dose-dependent effect
THP-1 [32] = assay: Inhibition of ox-LDL uptake in human THP-1 foam cells assessed as downregulation of CD36 expression by measuring reduction in pERK protein expression at 2.5 to 15 uM by Western blot analysis; format: functional, cell-based; details: dose 2.5-15 µM
THP-1 [33] = assay: Inhibition of foam cells formation in human THP-1 cells assessed as upregulation of ABCA1 protein expression at 2.5 to 15 uM by Western blot analysis; format: functional, cell-based; details: dose 2.5-15 µM
HepG2 [34] = assay: Induction of reverse cholesterol transport in human HepG2 cells assessed as upregulation of LDLR protein expression by Western blot analysis; format: functional, cell-based; details: dose 2.5-15 µM, DDE = dose-dependent effect
THP-1 [35] = assay: Inhibition of ox-LDL uptake in human THP-1 foam cells assessed as downregulation of CD36 expression by measuring reduction in pJNK protein expression at 2.5 to 15 uM by Western blot analysis; format: functional, cell-based; details: dose 2.5-15 µM
THP-1 [36] = assay: Inhibition of foam cells formation in human THP-1 cells assessed as reduction in CD36 mRNA expression at 2.5 to 15 uM by RT-PCR analysis; format: functional, cell-based; details: dose 2.5-15 µM
HepG2 [37] = assay: Induction of reverse cholesterol transport in human HepG2 cells assessed as reduction in PCSK9 mRNA expression at 2.5 to 15 uM by qRT-PCR analysis; format: functional, cell-based; details: dose 2.5-15 µM
THP-1 [38] = assay: Inhibition of foam cells formation in human THP-1 cells assessed as upregulation of ABCG1 protein expression at 2.5 to 15 uM by Western blot analysis; format: functional, cell-based; details: dose 2.5-15 µM
THP-1 [39] = assay: Inhibition of ox-LDL uptake in human THP-1 foam cells assessed as downregulation of CD36 expression by measuring reduction in MAPK mRNA expression at 2.5 to 15 uM by qRT-PCR analysis; format: functional, cell-based; details: dose 2.5-15 µM
THP-1 [40] = assay: Inhibition of ox-LDL uptake in human THP-1 foam cells assessed as downregulation of CD36 expression by measuring reduction in total JNK protein expression at 2.5 to 15 uM by Western blot analysis; format: functional, cell-based; details: dose 2.5-15 µM
THP-1 [41] = assay: Inhibition of ox-LDL induced lipid accumulation in human THP-1 cells assessed as increase in cholesterol efflux rate incubated for 24 hrs by liquid scintillation counting analysis; format: functional, cell-based; details: dose 2.5-15 µM, DDE = dose-dependent effect

CC(C)=CCc1ccc(O)c2c1[C@H](c1cc(C)cc3c1O[C@H](C(C)(C)O)CO3)NC2=O was tested, and the Activity (HepG2 [1]) was “Active”, the Activity (HepG2 [2]) was “Non-Toxic” and the Activity (HepG2 [3]) was “Active”. The Activity (HepG2 [4]) was “Dde”, the Activity (HepG2 [5]) was “Active” and the inhibition (THP-1 [6]) was “Active”. The Activity (THP-1 [7]) was “Dde”, the inhibition (THP-1 [8]) was “Active” and the Activity (HepG2 [9]) was “Dde”. The inhibition (THP-1 [10]) was “Active”, the inhibition (THP-1 [11]) was “Active” and the inhibition (THP-1 [12]) was “Active”. The inhibition (THP-1 [13]) was “Active”, the Activity (HepG2 [14]) was “Dde” and the Activity (THP-1 [15]) was “Active”. For the same molecule, the inhibition (THP-1 [16]) was “Active”, the Activity (HepG2 [17]) was “Active” and the inhibition (HepG2 [18]) was “Active”. For the same molecule, the Activity (THP-1 [19]) was “Active”, the Activity (HepG2 [20]) was “Dde” and the Activity (THP-1 [21]) was “Non-Toxic”. The inhibition (HepG2 [22]) was “Active”, the Activity (HepG2 [23]) was “Dde” and the inhibition (THP-1 [24]) was “Active”. For the same molecule, the Activity (HepG2 [25]) was “Active”, the inhibition (THP-1 [26]) was “Active” and the inhibition (THP-1 [27]) was “Active”. For the same molecule, the Activity (HepG2 [28]) was “Active”, the inhibition (THP-1 [29]) was “Active” and the Activity (HepG2 [30]) was “Dde”. The Activity (THP-1 [31]) was “Dde”, the inhibition (THP-1 [32]) was “Active” and the inhibition (THP-1 [33]) was “Active”. For the same molecule, the Activity (HepG2 [34]) was “Dde”, the inhibition (THP-1 [35]) was “Active” and the inhibition (THP-1 [36]) was “Active”. The Activity (HepG2 [37]) was “Active”, the inhibition (THP-1 [38]) was “Active” and the inhibition (THP-1 [39]) was “Active”. For the same molecule, the inhibition (THP-1 [40]) was “Active” and the inhibition (THP-1 [41]) was “Dde”.
